Measured values from patent publication US20040043462A1, “Chamber for in vivo screening of angiogenesis and tumor growth modulating compounds” (priority 2003, published 2004).
“Also recorded” adds a separate entry of the source.

How the values were obtained:
[1] = system: tumor cells embedded in fibrin gel (T-ZC); experiment: Tumor cell-containing chambers (T-ZC) implanted in animals, systemic SUGEN 5416 treatment; format: in vivo
Procedure: A tumor cell chamber, or tumor Z-chamber (T-ZC) is prepared by adding tumor cells to the fibrinogen solution before adding the solution to the chamber. The tumor cells are embedded in fibrin gel. Implantation is accomplished by making two 2 cm long incisions on the backs of the animals, followed by making blunt dissections on both sides to establish a pocket in the subcutaneous space. The chambers are inserted into these pockets. Clips are used to close the incision in rats and sutures are used for mice. A topical antibiotic, such as that sold under the registered trademark NEOSPORIN® by Glaxo-Wellcome, Inc., is applied over the incision. To harvest the chambers, a long incision is made on the backs of the animals. The surrounding fascia is observed and noted. The chambers are pushed from outside the animal and pulled out. Pictures are taken at this stage to observe differences, if any, between tissue within and encompassing the chamber and the surrounding tissue. The mesh and issue agglomerated thereon are cut from the chamber with scalpel (preferably a #11 blade) and then processed in accordance with a desired analysis approach.

[2] = system: wound healing response (granulation tissue, neovascularization) in F-ZC; experiment: Fibrin Z-chamber (F-ZC) wound healing assay, systemic SU5416 treatment; format: in vivo, Fischer 344 rats; details: for residual D-dimer retention: SU5416 vs control (FIG. 16); for body weight loss: SU5416 20 mg/kg, F-ZC implantation, 10-12 days, vs control (FIG. 13)
Procedure: (§1) Schedule and Dose of Drug Administration.
Fibrin Z-Chambers (F-ZC): In accordance with the present invention, F-ZC were employed in a fibrin gel based in vivo assay. In F-ZC, fibrinogen and thrombin are added to a dual porous chamber through a port and chambers are then implanted in the subcutaneous tissue of the rats and harvested at day 12 post-implantation to assess the wound healing response generated due to presence of fibrin. These chambers are constructed from customized PLEXIGLAS® rings with internal diameter of 10 mm and have an access port drilled on the side. The two open surfaces are covered by nylon mesh (pore size 180 microns, # NY8H04700, Millipore, Mass.) glued to the rings. Fibrinogen (# 341578, CalBiochem, La Jolla, Calif.) was prepared in DMEM (# 11995-065, Gibco BRL, Rockville, Md.) at a concentration of 4 mg/ml and was converted to fibrin by addition of thrombin (#605160, CalBiochem, La Jolla, Calif.) inside the chambers.
Fischer 344 rats were anesthetized, hair removed using the clippers and the surface was surgically prepared. Two small midline skin incisions were made in the dorsal region about 4 cm apart. Fascia was blunt dissected and small pockets were created on both sides along the midline incision. Thus, four F-ZCs were implanted per animal.
Quantitation of Immunohistochemistry. Microvessel density (MVD) was calculated as described by Weidner (Weidner, N., et al., J Natl Cancer Inst (1992) 84(24):1875-87). Briefly, three hot spots or areas with highest visible blood vessels density (marked by the vessel marker) per sample section were selected and number of blood vessels counted at a high power field (400×). The data was then pooled for the control and treated tissues to arrive at the mean values for each group. Collagen was semi-quantitatively estimated on a scale of 0-4. Zero was described as negligible staining, 1 as weak, 2 as moderate, 3 as strong and 4 as complete staining as observed in dermis.
D-Dimer Measurements. The MINIQUANT™ D-Dimer (Cat # 1447, Biopool AB of Umea, Sweden) assay was used to measure residual D-Dimer in the chamber content lysates generated as detailed above. […] The measurements were carried out in duplicate. Each measurement is from pooled tissue for the treatment and control groups.

TGF β1 = TGF β1 ELISA on F-ZC tissue lysates; format: in vivo, Fischer 344 rats
Procedure: as §1
TGF β1 ELISA. Active TGF β1 ELISA was carried out in triplicate using DUOSET® kit (DY240, Genzyme Corporation, Cambridge, Mass.) as described previously (Danielpour, D., J Immunol Methods (1993) 158(1):17-25) with tissue lysates from chamber contents generated as detailed above. Latent form of […] was converted to immunoreactive form to ascertain total […] content. The data is shown as pg per mg of protein in the tissues.

[3] = system: wound healing response (granulation tissue, neovascularization) in F-ZC; experiment: Fibrin Z-chamber (F-ZC) wound healing assay, systemic SU5416 treatment; format: in vivo, Fischer 344 rats; details: SUGEN 5416 20 mg/kg, control about 45, p=0.0009
[4] = system: wound healing response (granulation tissue) in fibrin-containing chambers; experiment: F-ZC wound healing response with chamber administration of angiostatin; format: in vivo
Procedure: FIGS. 20A and 20B are photographs showing gross examination of fibrin-containing chambers of the present invention in which angiostatin was administered in laboratory animals in accordance with techniques described herein above for Laboratory Examples 1-9. […] Fibrin is inherently pale yellow in color and lack of blood vessels in angiostatin treated chambers results in the paler appearance of the chambers.
FIGS. 20C and 20D are photomicrographs showing depth (represented by line with arrowheads at each end) of granulation tissue developed inside fibrin-containing chambers of the present invention. Depth granulation was used as a measure for the healing response.
Scale=depth of granulation tissue (×10 microns).

[5] = Table 1, SU5416 vs control, n = 10

`Cc1cc(C)c(C=C2C(=O)Nc3ccccc32)[nH]1` [SU5416, 3-(2,4-Dimethylpyrrol-5-yl)methylene-2-indolinone] was tested, and the body weight loss ([1]; SUGEN 5416 20 mg/kg systemic, T-ZC implantation, vs control animals (FIG. 9), 20 mg/kg) was “no significant body weight loss; also recorded: no significant body weight lost”, the tumor growth delay ([1]; SUGEN 5416 20 mg/kg systemic, T-ZC, p<0.0001 (FIG. 10)) was “significant tumor growth delay” and the “increase in tumor volume” value ([1]; SUGEN 5416 20 mg/kg systemic, T-ZC, control about 90% (FIG. 10)) was 40%. For the same molecule, the “microvessel density (MVD) change” value ([1]; T-ZC, SUGEN 5416 20 mg/kg, p=0.11 (FIG. 11)) was “did not change”, the “MVD per high power (200×) focal (HPF)” value ([1]; T-ZC, SUGEN 5416 20 mg/kg, control about 15 (FIG. 11)) was “about 13” and the “residual D-dimer retention” value ([1]; T-ZC, SUGEN 5416 systemic vs control (FIG. 12)) was “more residual D-dimer retention”. For the same molecule, the “gross appearance of chambers (influx of blood vessels)” value ([2]; F-ZC at harvest day 12, SU5416 vs controls (FIGS. 17A, 17B)) was “distinctly paler color; also recorded: paler in color”, the “collagen deposition (MT stain)” value ([2]; F-ZC granulation tissue, SU5416 20 mg/kg IP, p=0.0006, 20 mg/kg) was “distinctly decreased collagen deposition; also recorded: collagen was decreased” and the “reduction in microvessel density vs controls” value ([2]; F-ZC, SU5416 20 mg/kg IP, day 12, p=0.0009) was 10%. The “reduction of granulation tissue (depth) vs controls” value ([2]; F-ZC, SU5416 20 mg/kg IP, day 12, p=0.0076) was 45%, the granulation tissue formation ([2]; F-ZC, SU5416 20 mg/kg vs control, listed as SUGEN 5416) was “inhibited granulation tissue formation” and the “decrease in collagen deposition (semi-quantitative, MT)” value ([2]; F-ZC, SU5416 treated vs controls) was greater than 70%. The “residual D-dimer retention” value ([2]; F-ZC) was “remained elevated”, the “residual D-dimer retention” value ([2]; F-ZC, listed as SUGEN 5416) was “increase in residual D-dimer retention” and the neovascularization ([2]; F-ZC, SUGEN 5416 20 mg/kg vs control) was “inhibited neovascularization”. The “average depth of granulation tissue” value ([2]; F-ZC, SUGEN 5416 20 mg/kg, magnification 10×, control about 45 mm, p=0.0076) was “about 25 mm”, the “D-dimer levels in chambers” value ([2]; F-ZC, SUGEN 5416, after 10-12 days of implantation, control about 4,000 ng/ml) was “about 13,000 ng/ml” and the body weight loss ([2]; 20 mg/kg) was “maintained their pre-treatment weights”. The body weight loss ([2]; listed as SUGEN 5416) was “no significant body weight loss”, the D-Dimer ([2]; Table 1, F-ZC tissue lysates (pooled), SU5416, control 4100 ± 100) was 185 ± 20 ng/mL and the Granulation ([2]; Table 1, F-ZC, SU5416 20 mg/kg IP, day 12, ± standard error of mean, control 466.7 ± 51.9) was 256.8 ± 42.9. The Collagen ([2]; Table 1, F-ZC, SU5416, semi-quantitative scale of 0-4, ± SEM, control 1.75 ± 0.25) was 0.5 ± 0.18, the Microvessel ([2]; Table 1, F-ZC, SU5416, ± SEM, control 28.17 ± 0.42) was 26.25 ± 0.53 and the “Difference, Microvessel” value ([2]; Table 1, SU5416 vs control) was 10%, p = 0.006,. For the same molecule, the “Difference, D-Dimer” value [2, 5] was 96%, n = 10, the “Difference, Collagen” value ([2]; Table 1, SU5416 vs control, p = 0.001) was 72%, p = 0.001, and the “Difference, Granulation” value ([2]; Table 1, SU5416 vs control, p = 0.006) was 45%, p = 0.006,. The “reduction in active TGF β1 level” value (TGF β1; F-ZC tissue, SU5416 20 mg/kg IP vs controls) was 90%, the “total TGF β1” value (TGF β1; F-ZC tissue, SU5416 treated vs controls) was “increased” and the “Active TGF β1” value (TGF β1; Table 1, F-ZC tissue lysates, SU5416, control 1.45 ± 0.1) was 0.11 ± 0.05 pg per mg of protein. The “Latent TGF β1” value (TGF β1; Table 1, F-ZC tissue lysates, SU5416, control 7.72 ± 0.5) was 11.85 ± 0.8 pg per mg of protein, the “Difference, Active TGF β1” value (TGF β1; [5]) was 93%, n = 10 and the “Difference, Latent TGF β1” value (TGF β1; [5]) was 35%, n = 10. For the same molecule, the “average MVD at 200× magnification” value [3] was “about 30”.
In the case of angiostatin, the healing response ([4]; 1 μM angiostatin in chamber) is reported as “reduction in healing response”, the “gross appearance of chambers (influx of blood vessels)” value ([4]; 1 μM angiostatin in chamber vs controls (FIGS. 20A, 20B)) is reported as “paler in color” and the “granulation tissue formation (depth)” value ([4]; 1 μM angiostatin in chamber vs controls (FIGS. 20C, 20D, 21)) is reported as “granulation tissue in controls (FIG. 20C) is distinctly more than angiostatin treated chambers; also recorded: inhibited granulation tissue formation”.
